Experimental data reported in patent publication US20250375544A1, “DUAL MODE RADIOTRACER AND -THERAPEUTICS” (TECHNISCHE UNIVERSITÄT MÜNCHEN, priority 2021, published 2025).

Tests used:
[1] = tested on: LNCaP tumor xenograft-bearing CB17-SCID mouse; assay: Metabolite analysis 1 h p.i. (radio-RP-HPLC of organ and body fluid extracts); format: in vivo, mice
Protocol: […] (9.64 MBq) was injected into the tail vein of a LNCaP tumor xenograft-bearing CB17-SCID mouse. The animal was sacrificed 1 h p.i. and subjected to the standard procedure for biodistribution studies. In addition, urine was taken from all mice that were investigated in this experiment (8.4-9.0 MBq) and pooled (n=5). Relevant dissected organs (tumor, kidneys, liver) and body fluids (blood and urine) were collected, homogenized if necessary and subjected to mechanochemical as well as solid phase extraction (SPE).
Four 2 mL LoBind tubes were equipped with steel and ceramic beads from Lysis Tubes W (analytikjena, Jena, Germany) for kidneys, tumor and liver (bisected). 1 mL radioimmunoprecipitation assay (RIPA) buffer containing 2.0 μmol of 2-PMPA was added to each tube and the organs were homogenized with a MM-400 ball mill (Retsch GmbH, Haan, Germany) at 30 Hz for 20 min. Afterwards, the homogenates were transferred to LoBind tubes free from steel and ceramic beads and centrifuged (15,200 rpm, 10 min, 21° C.). The first supernatants were stored, and the precipitates were again subjected to mechanochemical extraction with 1 mL RIPA buffer (2.0 μmol PMPA) at 30 Hz for 20 min. After centrifugation (15,200 rpm, 10 min, 21° C.), also the second supernatants were kept for SPE.
After cardiac puncture, 1 mL Tracepur®-H2O was directly added to the collected blood sample and centrifuged twice (13,000 rpm, 5 min) to separate the plasma from the blood cells. The precipitate was dissolved in 500 μL Tracepur®-H2O and together with the first supernatant again centrifuged (13,000 rpm, 5 min). Both supernatants were kept for SPE.
Pooled urine samples were centrifuged (13,000 rpm, 5 min) and the supernatant was directly analyzed via radio-RP-HPLC.
For solid phase extraction, the supernatants were loaded onto Strata-X cartridges (200 mg), which were preconditioned with 5 mL MeOH and 5 mL H2O (eight cartridges in total, for all organ and blood supernatants). The cartridges were washed with 1 mL Tracepur®-H2O and dried prior to elution. For each cartridge, 750 μL of MeCN/H2O (6/4, 0.1% TFA) were used for elution and the extracts were analyzed via radio-RP-HPLC.
Besides biodistribution and μSPECT/CT studies, [^177Lu]Lu-11 (tetrazole) was analyzed according to its metabolic stability 1 h p.i. Relevant dissected organs (tumor, kidney, liver) and body fluids (blood and urine) were collected, homogenized if necessary and subjected to extraction of the incorporated activity. […] The respective radio-RP-HPLC analyses of extracts from homogenized organs and body fluids are depicted in FIG. 10.

[2] = tested on: LNCaP tumor xenograft-bearing CB17-SCID mice; assay: Biodistribution in LNCaP tumor xenograft-bearing CB17-SCID mice
LNCaP cells = format: cell-based, human; details: 1 h, 37° C., 1.0 nM ^177Lu-compound, normalized to ([^125I]I-BA)KuE

## CC(C)(C)[Si](F)(c1ccc(C(=O)NCC(NC(=O)CN2CCN(CC(=O)[O-])CCN(CC(=O)[O-])CCN(CC(=O)[O-])CC2)C(=O)NC(CCCCNC(=O)CCC(=O)NCCCC(NC(=O)CCC(NC(=O)NC(CCc2nnn[nH]2)C(=O)O)C(=O)O)C(=O)O)C(=O)O)cc1)C(C)(C)C.[177Lu+3] (stereo not drawn) [[^177Lu]Lu-11, [^177Lu]Lu-Tetrazole Derivative 11]
[1]; blood
  metabolite with higher hydrophilicity, amount: 8.5%
[1]; kidney
  metabolite with higher hydrophilicity, amount: 11.7%
[1]; liver homogenate
  metabolite with higher hydrophilicity: not detectable
  more lipophilic metabolite (tR=20.5 min), amount: 28.0%
[1]; tumor
  metabolite with higher hydrophilicity, amount: 7.1%
[1]; urine
  metabolite with higher hydrophilicity, amount: 18.7%
[2]; 1 h p.i.
  Biodistribution Adrenals: 0.61 ± 0.42 % ID/g
  Biodistribution Blood: 1.09 ± 0.30 % ID/g
  Biodistribution Bone: 0.47 ± 0.44 % ID/g
  Biodistribution Heart: 0.41 ± 0.04 % ID/g
  Biodistribution Intestine: 0.67 ± 0.21 % ID/g
  Biodistribution Kidneys: 33.2±3.8 % ID/g
  Biodistribution Liver: 0.74 ± 0.17 % ID/g
  Biodistribution Lung: 1.23 ± 0.27 % ID/g
  Biodistribution Muscle: 0.15 ± 0.03 % ID/g
  Biodistribution Pancreas: 0.33 ± 0.11 % ID/g
  Biodistribution Parotid gland: 0.56 ± 0.08 % ID/g
  Biodistribution Spleen: 1.04 ± 0.15 % ID/g
  Biodistribution Stomach: 1.55 ± 1.67 % ID/g
  Biodistribution Submandibular gland: 0.40 ± 0.05 % ID/g
  Biodistribution Tumor: 3.40±0.63 % ID/g
  Ratio Tumor-to-blood: 3.46 ± 1.62
  Ratio Tumor-to-kidney: 0.10 ± 0.03
  Ratio Tumor-to-liver: 5.00 ± 2.11
  Ratio Tumor-to-muscle: 24.9 ± 10.2
  Ratio Tumor-to-parotid gland: 6.20 ± 1.74
  Ratio Tumor-to-submandibular gland: 8.74 ± 2.52
[2]; 1 h p.i. vs 24 h p.i.
  tumor-to-submandibularis and -parotidea ratios at 1 h p.i. compared to respective values at 24 h p.i.: two-fold lower
[2]; 24 h p.i.
  Biodistribution Adrenals: 0.17 ± 0.19 % ID/g
  Biodistribution Blood: 0.00 ± 0.00 % ID/g
  Biodistribution Bone: 0.18 ± 0.04 % ID/g
  Biodistribution Heart: 0.02 ± 0.00 % ID/g
  Biodistribution Intestine: 0.52 ± 0.68 % ID/g
  Biodistribution Kidneys: 3.23 ± 0.77 % ID/g
  Biodistribution Liver: 0.18 ± 0.04 % ID/g
  Biodistribution Lung: 0.05 ± 0.02 % ID/g
  Biodistribution Muscle: 0.02 ± 0.01 % ID/g
  Biodistribution Pancreas: 0.02 ± 0.00 % ID/g
  Biodistribution Parotid gland: 0.06 ± 0.02 % ID/g
  Biodistribution Spleen: 0.11 ± 0.03 % ID/g
  Biodistribution Stomach: 0.12 ± 0.11 % ID/g
  Biodistribution Submandibular gland: 0.04 ± 0.01 % ID/g
  Biodistribution Tumor: 0.68 ± 0.16 % ID/g
  Ratio Tumor-to-blood: 227 ± 50
  Ratio Tumor-to-kidney: 0.22 ± 0.06
  Ratio Tumor-to-liver: 3.74 ± 0.50
  Ratio Tumor-to-muscle: 55.9 ± 24.3
  Ratio Tumor-to-parotid gland: 12.2 ± 1.7
  Ratio Tumor-to-submandibular gland: 16.9 ± 2.2
[2]; 24 h p.i., in comparison to [^177Lu]Lu-PSMA-10
  factor by which tumor-to-submandibular gland and tumor-to-parotid gland ratios declined: 8
LNCaP cells
  % Internalization compared to the reference: 9.9±3.2%
